Assay results: US20080167330A1, “Carbamoylsulphoximides as protein kinase inhibitors” (priority 2006, published 2008)

Experiments:
Type in all cases: biochemical
human Aurora-C = molecular target: T1, human Aurora-C (Homo sapiens, UniProt Q9UQB9); assay: Aurora-C kinase assay (HTRF); settings: 10 μM ATP
T1 construct: GST; made in house; host or cells: transiently transfected HEK293 cells
T1 sequence (Q9UQB9 1-309): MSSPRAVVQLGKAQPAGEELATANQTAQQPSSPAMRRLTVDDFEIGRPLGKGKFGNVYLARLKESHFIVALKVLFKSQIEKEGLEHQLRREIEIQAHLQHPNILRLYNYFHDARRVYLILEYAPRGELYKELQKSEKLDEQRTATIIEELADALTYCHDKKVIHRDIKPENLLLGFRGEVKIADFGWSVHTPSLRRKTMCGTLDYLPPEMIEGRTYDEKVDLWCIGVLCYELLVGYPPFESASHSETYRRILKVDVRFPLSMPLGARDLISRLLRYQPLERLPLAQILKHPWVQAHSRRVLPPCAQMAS
Method: The Aurora-C inhibitory activity of the substances of this invention was measured in the Aurora-C-HTRF assay (HTRF=Homogeneous Time Resolved Fluorescence) described in the following paragraphs.
Recombinant fusion protein of GST and human Aurora-C was expressed in transiently transfected HEK293 cells and purified by affinity chromatography on glutathione-Sepharose. The substrate used for the kinase reaction was the biotinylated peptide biotin-Ttds-FMRLRRLSTKYRT (C terminus in amide form) which can be purchased for example from JERINI Peptide Technologies (Berlin). Aurora-C was incubated in the presence of various concentrations of test substances in 5 μL of assay buffer [25 mM Hepes/NaOH pH 7.4, 0.5 mM MnCl2, 2.0 mM dithiothreitol, 0.1 mM sodium orthovanadate, 10 μM adenosine triphosphate (ATP), […] substrate, 0.01% (v/v) TritonX-100 (Sigma), 0.05% (w/v) bovine serum albumin (BSA), 1% (v/v) dimethyl sulphoxide] at 22° C. for 60 min. The concentration of Aurora-C was adapted to the particular activity of the enzyme and adjusted so that the assay operated in the linear range. Typical concentrations were in the region of 0.3 nM. The reaction was stopped by adding 5 μl of a solution of HTRF detection reagents (0.2 μM streptavidin-XLent and 1.4 nM anti-phospho-(Ser/Thr)-Akt substrate-Eu-cryptate (Cis biointernational, France, product No. 61P02KAE), a Europium-cryptate-labelled phospho-(Ser/Thr)-Akt substrate antibody [product #9611B, Cell Signaling Technology, Danvers, Mass., USA]) in aqueous EDTA solution (40 mM EDTA, 400 mM KF, 0.05% (w/v) bovine serum albumin (BSA) in 25 mM HEPES/NaOH pH 7.0).
The resulting mixture was incubated at 22° C. for 1 h in order to allow formation of a complex of the biotinylated phosphorylated substrate and the detection reagents. The amount of phosphorylated substrate was then estimated by measuring the resonance energy transfer from the anti-phospho-(Ser/Thr)-Akt substrate-Eu cryptate to the streptavidin-XLent. For this purpose, the fluorescence emissions at 620 nm and 665 nm after excitation at 350 nm were measured in an HTRF measuring instrument, e.g. a Rubystar (BMG Labtechnologies, Offenburg, Germany) or a Viewlux (Perkin-Elmer). The ratio of the emissions at 665 nm and at 622 nm was taken as a measure of the amount of phosphorylated substrate. The data were normalized (enzymic reaction without inhibitor=0% inhibition, all other assay components but no enzyme=100% inhibition) and IC50 values were calculated with a 4-parameter fit using an inhouse software.

CDK1/CycB = molecular target: T2, CDK1/CycB (Homo sapiens, UniProt P06493); assay: CDK1/CycB kinase assay; settings: 0.5 μM ATP
T2 construct: GST; purchased ProQinase GmbH, Freiburg; host or cells: baculovirus-infected insect cells (Sf9)
Method: Recombinant CDK1- and CycB-GST fusion proteins, purified from baculovirus-infected insect cells (Sf9), were purchased from ProQinase GmbH, Freiburg. The histone IIIS used as kinase substrate can be purchased from Sigma.
CDK1/CycB (5 ng/μL) was incubated in the presence of various concentrations of test substances (0 μM, and within the range 0.01-100 μM) in 40 μL of assay buffer [50 mM Tris/HCl pH 8.0, 10 mM MgCl2, 0.1 mM Na ortho-vanadate, 1.0 mM dithiothreitol, 0.025% PEG 20000, 0.5 μM ATP, 10 μM histone IIIS, 0.2 μCi/measurement point ^33P-gamma ATP, 0.05% NP40, 1.25% dimethyl sulphoxide] at 22° C. for 10 min. The reaction was stopped by adding EDTA solution (250 mM, pH 8.0, 15 μl/measurement point). 15 μl of each reaction mixture were loaded onto P30 filter strips (from Wallac), and non-incorporated ^33P-ATP was removed by washing the filter strips three times in 0.5% strength phosphoric acid for 10 min each time. After the filter strips had been dried at 70° C. for 1 hour, the filter strips were covered with scintillator strips (MeltiLex™ A, from Wallac) and baked at 90° C. for 1 hour. The amount of incorporated ^33P (substrate phosphorylation) was determined by scintillation measurement in a gamma radiation counter (Wallac).
(§1) The measured data were normalized to 0% inhibition (enzyme reaction without inhibitor) and 100% inhibition (all assay components except enzyme). The IC50 values were determined by means of a 4-parameter fit using the company's own software.

CDK2/CycE = molecular target: T3, CDK2/CycE (Homo sapiens, UniProt P24941); assay: CDK2/CycE kinase assay; settings: 0.5 μM ATP
T3 construct: GST; purchased ProQinase GmbH, Freiburg; host or cells: baculovirus-infected insect cells (Sf9)
Method: Recombinant CDK2- and CycE-GST fusion proteins, purified from baculovirus-infected insect cells (Sf9), were purchased from ProQinase GmbH, Freiburg. The histone IIIS used as kinase substrate was purchased from Sigma. CDK2/CycE (1.25 ng/μL) was incubated in the presence of various concentrations of test substances (0 μM, and within the range 0.01-100 μM) in 40 μL of assay buffer [50 mM Tris/HCl pH 8.0, 10 mM MgCl2, 0.1 mM Na ortho-vanadate, 1.0 mM dithiothreitol, 0.5 μM ATP, 0.2% PEG20000, 10 μM histone IIIS, 0.2 μCi/measurement point ^33P-gamma ATP, 0.05% NP40, 1.25% dimethyl sulphoxide] at 22° C. for 10 min. The reaction was stopped by adding EDTA solution (250 mM, pH 8.0, 15 μl/measurement point).
15 μl of each reaction mixture were loaded onto P30 filter strips (from Wallac), and non-incorporated ^33P-ATP was removed by washing the filter strips three times in 0.5% strength phosphoric acid for 10 min each time.
(§2) After the filter strips had been dried at 70° C. for 1 hour, the filter strips were covered with scintillator strips (MeltiLex™ A, from Wallac) and baked at 90° C. for 1 hour. The amount of incorporated ^33P (substrate phosphorylation) was determined by scintillation measurement in a gamma radiation counter (Wallac).
as §1

KDR (VEGFR2) = molecular target: T4, KDR (VEGFR2) (Homo sapiens, UniProt P35968); assay: KDR kinase assay; settings: 8 μM ATP
T4 construct: GST; purchased ProQinase GmbH, Freiburg; host or cells: baculovirus-infected insect cells (Sf9)
Method: Recombinant KDR kinase-GST fusion proteins purified from baculovirus-infected insect cells (Sf9), were purchased from ProQinase GmbH, Freiburg. Poly(Glu4Tyr)n, which was used as kinase substrate, was purchased from Sigma.
KDR kinase was incubated in the presence of various concentrations of test substances (0 μM, and within the range 0.01-100 μM) in 40 μL of assay buffer [40 mM Tris/HCl pH 7.5, 10 mM MgCl2, 1 mM MnCl2, 1.0 mM dithiothreitol, 8 μM ATP, 0.025% PEG20000, 24 ng/μL poly(Glu4Tyr)n, 0.2 μCi/measurement point ^33P-gamma ATP, 1.25% dimethyl sulphoxide] at 22° C. for 10 min. The reaction was stopped by adding EDTA solution (250 mM, pH 7.5, 15 μl/measurement point). 15 μl of each reaction mixture were loaded onto P30 filter strips (from Wallac), and non-incorporated ^33P-ATP was removed by washing the filter strips three times in 0.5% strength phosphoric acid for 10 min each time.
as §2, §1

[1] = system: Aurora C, CDK1/CycB, CDK2/CycE, KDR (VEGFR2); assay: various kinase assays taken together (selectivity profile); settings: comparison across the kinase assays, in words
Method: The compounds of Examples 1 to 22 were tested for their inhibitory effect in the various kinase assays and in a proliferation assay with MCF7 human breast tumour cells (Tab. 1). […] Exemplary compounds 1-8, 10-12, 15, 17-20 inhibit the proliferation of human MCF7 breast tumour cells with half-maximum concentrations in the submicromolar range.

T4 sequence (P35968 807-1356 limits assumed): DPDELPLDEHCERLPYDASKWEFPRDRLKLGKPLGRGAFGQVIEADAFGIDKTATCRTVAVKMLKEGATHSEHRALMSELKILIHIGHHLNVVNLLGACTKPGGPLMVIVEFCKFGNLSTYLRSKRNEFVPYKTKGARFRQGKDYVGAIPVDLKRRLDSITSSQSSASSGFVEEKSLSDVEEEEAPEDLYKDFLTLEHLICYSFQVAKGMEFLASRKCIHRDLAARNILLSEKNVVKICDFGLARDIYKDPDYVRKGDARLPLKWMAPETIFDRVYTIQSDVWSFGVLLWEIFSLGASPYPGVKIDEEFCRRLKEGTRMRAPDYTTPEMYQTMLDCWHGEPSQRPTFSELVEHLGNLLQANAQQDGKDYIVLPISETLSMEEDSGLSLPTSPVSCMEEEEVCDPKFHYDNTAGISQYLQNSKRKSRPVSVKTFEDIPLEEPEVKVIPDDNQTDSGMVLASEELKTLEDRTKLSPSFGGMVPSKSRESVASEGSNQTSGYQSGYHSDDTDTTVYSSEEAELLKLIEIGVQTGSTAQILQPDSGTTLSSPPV
T2 sequence (P06493 whole entry): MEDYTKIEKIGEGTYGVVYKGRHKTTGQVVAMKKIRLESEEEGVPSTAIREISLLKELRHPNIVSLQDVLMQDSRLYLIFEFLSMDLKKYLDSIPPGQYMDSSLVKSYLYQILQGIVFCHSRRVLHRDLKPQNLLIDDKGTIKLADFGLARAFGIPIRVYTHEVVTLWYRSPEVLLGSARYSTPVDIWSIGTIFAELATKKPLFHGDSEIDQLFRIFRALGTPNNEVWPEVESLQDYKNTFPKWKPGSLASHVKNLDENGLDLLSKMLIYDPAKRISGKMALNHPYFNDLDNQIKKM
T2 sequence (P14635 whole entry partner): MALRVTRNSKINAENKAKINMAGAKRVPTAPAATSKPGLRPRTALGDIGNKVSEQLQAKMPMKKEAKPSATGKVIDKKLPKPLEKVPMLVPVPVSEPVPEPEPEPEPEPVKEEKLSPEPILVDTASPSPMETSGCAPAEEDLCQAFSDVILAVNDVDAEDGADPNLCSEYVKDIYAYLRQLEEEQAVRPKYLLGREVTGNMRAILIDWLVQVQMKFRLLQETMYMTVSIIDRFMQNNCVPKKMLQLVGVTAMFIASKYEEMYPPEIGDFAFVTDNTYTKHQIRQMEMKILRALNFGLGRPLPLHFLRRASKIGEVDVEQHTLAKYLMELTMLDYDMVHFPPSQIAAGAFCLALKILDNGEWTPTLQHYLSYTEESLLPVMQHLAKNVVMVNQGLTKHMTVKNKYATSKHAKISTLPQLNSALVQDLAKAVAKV

For Cc1c(NC(=O)N=S(C)(C)=O)cccc1Nc1ncc(Br)c(N[C@H](C)[C@@H](C)O)n1 [Example 9, N-({3-[(5-Bromo-4-{[(1R,2R)-2-hydroxy-1-methylpropyl]amino}pyrimidin-2-yl)amino]-2-methylphenyl)carbamoyl)-S,S-dimethylsulphoximide], the IC50 (human Aurora-C) was 20000 nM, the IC50 (CDK1/CycB) was 180 nM and the IC50 (CDK2/CycE) was 43 nM. The IC50 (KDR (VEGFR2)) was > 1000 nM and the selectivity profile [1] was “CDK-selective”.
